The text below walks through data of patent US8742100B2, “Small molecule inhibitors of isoprenylcysteine carboxyl methyltransferase with potential anticancer activity” (National University of Singapore, priority 2009, dated 2014).

Each structure is given as a SMILES string. Read-outs that look alike come from different tables or passages of the source.

The term IC50 denotes the concentration that inhibits the measured activity by half.

The test system of data set [1] is MDA-MB-231 human breast cells. Briefly: Proliferation assay, CellTiter 96 AQueous One Solution (MTS). Type of data set: cell-based. To be noted: for inhibition at 10 µM: read-out: inhibition in initial screen at a fixed concentration. As for the experimental part:
The MDA-MB-231 human breast cells were maintained at 37° C. with 5% CO2 in DMEM (Sigma) supplemented with 10% fetal bovine serum (FBS, Hyclone), 50 U/ml penicillin (Gibco), and 50 μg/ml streptomycin (Gibco). […] The relative number of the live cells was determined using the CellTiter® 96 AQueous One Solution Cell Proliferation Assay (Promega). Each condition was performed in triplicate, and data presented represent that obtained from at least two separate experiments.
The MDA-MB-231 human breast cells were maintained at 37° C. with 5% CO2 in DMEM (Sigma) supplemented with 10% fetal bovine serum (FBS, Hyclone), 50 U/ml penicillin (Gibco), and 50 μg/ml streptomycin (Gibco). […] The relative number of the live cells was determined using the CellTiter® 96 AQueous One Solution Cell Proliferation Assay (Promega). Each condition was performed in triplicate, and data presented to date were obtained from one determination.

Another data set has as its target T1, Icmt (Homo sapiens, UniProt O60725).
T1 construct: host or cells: Sf9 membranes
The experiment in a line: Measurement of ICMT activity: incorporation of 3H from [3H]AdoMet into biotin-S-farnesyl L-cysteine, Sf9 membranes containing ICMT. It is filed as biochemical. To be noted: mean of two separate determinations; ±SD where more than two; read-out: IC50 Icmt inhibition. As for the experimental part:
(§1) Measurement of ICMT activity. Icmt activity was determined by following incorporation of ^3H from [^3H]AdoMet (Amersham Biosciences) into the small molecule substrate biotin-S-farnesyl L-cysteine (BFC). Inhibitors were first incubated at 37° C. for 20 min, with the Sf9 membranes containing ICMT. An assay mixture containing 4 μM BFC and 5 μM [^3H]AdoMet in 100 mM Hepes, pH 7.4 and 5 mM MgCl2 was added to initiate the reaction. Reactions were carried out at 37° C. for 20 min, and terminated by addition of 10% Tween 20 and streptavidin beads (GE Healthcare, 10 uL of packed beads suspended in 500 μL of 20 mM NaH2PO4, pH 7.4, containing 150 mM NaCl). The mixtures were mixed by gentle agitation overnight at 4° C. The beads were harvested by centrifugation in a tabletop microcentrifuge at 10,000 rpm for 5 min and washed three times with 500 μL of 20 mM NaH2PO4, pH 7.4, containing 150 mM NaCl. The beads were then suspended in the same buffer, transferred to scintillation vials, and radioactivity determined.
as §1, with “Activity.” for “activity.”

Data set [2] can be described thus: Binding to fetal bovine serum (plasma protein binding), centrifugal filter device, HPLC. It is filed as in vitro ADME. Particulars: bovine, 5% w/v fetal bovine serum in phosphate buffered saline; for fraction unbound at 30 min, 1 µM / fraction unbound at 30 min, 4 µM / fraction unbound at 30 min, 10 µM / fraction unbound at 30 min, 25 µM: 5% fetal bovine serum in PBS. As for the experimental part:
Semi-automatic high-throughput determination of plasma protein binding using a 96-well plate filtrate assembly and fast liquid chromatography—tandem mass spectrometry. […] Stock solutions were prepared in DMSO at 100× higher concentrations. A 5% w/v solution of fetal bovine serum in phosphate buffered saline was prepared. An aliquot (10 μL of the stock solution was added to 990 μL of the PBS solution containing 5% fetal bovine serum in a glass tube which was then incubated in a shaking water bath at 37° C. for 30 min. 500 μL of the solution was then transferred to a centrifugal filter device (Amicon Ultra 0.5 ml # UFC503096) and centrifuged at 14 000g, 15 min. After this time, the filter units were removed and placed (upside down) in a collecting tube containing 477 μL, of PBS. The latter was centrifuged at 2000g, 2 min to obtain the retentate. […] J.

[3] abbreviates: Homo sapiens, MDA-MB-231, 72 h, MDA-MB-231 cells, MTS colorimetric assay, 72 h, one determination.
Setting [4] is: Homo sapiens, MDA-MB-231 cells, MTS colorimetric assay, 72 h, one determination, read-out: IC50.
The mark [5] stands for this setting: Homo sapiens, MDA-MB-231 cells, 72 h, mean of two separate determinations, ±SD where more than two, read-out: IC50 Antiproliferative activity.
Where [6] appears, read: Homo sapiens, MDA-MB-231, 72 h, read-out: IC50 Antiproliferative activity, MDA-MB-231 cells, 72 h, mean of two separate determinations, ±SD where more than two.
Setting [7] is: read-out: % Bound Average (converted).
Where [8] appears, read: read-out: % Bound Run 1 (converted).
Setting [9] is: read-out: % Bound Run 2 (converted).
Where [10] appears, read: read-out: % Bound Run 3 (converted).

T1 sequence (O60725 whole entry, species assumed): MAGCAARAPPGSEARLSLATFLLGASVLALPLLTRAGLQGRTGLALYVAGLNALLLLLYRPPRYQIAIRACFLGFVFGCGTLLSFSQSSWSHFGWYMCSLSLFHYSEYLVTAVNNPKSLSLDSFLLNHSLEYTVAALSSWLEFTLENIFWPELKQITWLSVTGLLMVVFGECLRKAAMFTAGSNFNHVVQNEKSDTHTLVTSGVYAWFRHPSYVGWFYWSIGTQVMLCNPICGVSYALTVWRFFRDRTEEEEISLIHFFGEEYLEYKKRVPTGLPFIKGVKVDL

With `CCCCCCCCn1cc(CN(C)C)c2cc(F)ccc21` [6-9(1), 1-(5-fluoro-1-octyl-1H-indol-3-yl)-N,N-dimethylmethanamine], the IC50 in data set [1] (setting [3]) is 4.9 µM.

`CCCCCCCCn1cc(CN2CCCCC2)c2cc(F)ccc21` [6-9(2), 5-fluoro-1-octyl-3-(piperidin-1-ylmethyl)-1H-indole]: the IC50 in data set [1] (setting [3]) was determined as 2.3 µM.

For `CCCCCCCCn1cc(CN2CCSCC2)c2cc(F)ccc21` [6-9(3), 4-((5-fluoro-1-octyl-1H-indol-3-yl)methyl)thiomorpholine], in data set [1] (Homo sapiens, MDA-MB-231 cells), the inhibition at 10 µM was ~45%.

On to `CCCCCCCCn1cc(CN2CCOCC2)c2cc(F)ccc21` [6-9(4), 4-((5-fluoro-1-octyl-1H-indol-3-yl)methyl)morpholine], for which the IC50 in data set [1] (setting [4]) was 3.2 µM.

Turning to `CCCCCCCCn1cc(CN2CCCC2)c2cc(F)ccc21` [6-9(5), 5-fluoro-1-octyl-3-(pyrrolidin-1-ylmethyl)-1H-indole], the IC50 in data set [1] (setting [4]) came out at 2.2 µM.

For `CCCCCCCCn1cc(CN2CCN(C)CC2)c2cc(F)ccc21` [6-9(6), 5-fluoro-3-((4-methylpiperazin-1-yl)methyl)-1-octyl-1H-indole], in data set [1] (Homo sapiens, MDA-MB-231 cells), the inhibition at 10 µM was ~45%.

For `CCCCCCCCn1cc(CC(N)=O)c2cc(F)ccc21` [Compound 1-8, 2-(5-Fluoro-1-octyl-1H-indol-3-yl)acetamide], the IC50 came out at 7 µM at Icmt and 70 µM in data set [1] (setting [5]).

Take `CCCCCCCCn1cc(CC(=O)N2CCN(C)CC2)c2cc(-c3cccc(C)c3)ccc21` [Compound 3-6, 1-(4-Methylpiperazin-1-yl)-2-(1-octyl-5-m-tolyl-1H-indol-3-yl)ethanone]: the IC50 at Icmt was 1.7 ± 0.4 µM; in data set [1] (setting [6]), 19.7 ± 0.9 µM.

As to `CCCCCCCCn1cc(CC(=O)NC)c2cc(-c3cccc(C)c3)ccc21` [Compound 3-7, N-Methyl-2-(1-octyl-5-m-tolyl-1H-indol-3-yl)acetamide], the IC50 on Icmt was 2.1 µM; in data set [1] (setting [5]), 4.7 µM.

Turning to `CCCCCCCCn1cc(C(N)=O)c2cc(-c3cccc(C)c3)ccc21` [Compound 5-1, 1-Octyl-5-m-tolyl-1H-indole-3-carboxamide], the values for the IC50 (on Icmt; in data set [1] (setting [6])) were 30 µM and > 100 µM, respectively.

For `CCCCCCCCn1cc(CCC(N)=O)c2cc(-c3cccc(C)c3)ccc21` [Compound 5-2, 3-(1-Octyl-5-m-tolyl-1H-indol-3-yl)propanamide], the IC50 stood at 1.2 µM on Icmt and 20.7 µM in data set [1] (setting [5]).

In the case of `CC(C)=CCn1ccc2cc(-c3cccc(C)c3)ccc21` [Compound 6-3, 1-(3-Methylbut-2-enyl)-5-m-tolyl-1H-indole], the IC50 (on Icmt; in data set [1] (setting [5])) was > 100 µM each time.

For the molecule `CC(C)=CCn1cc(CN2CCOCC2)c2cc(-c3cccc(C)c3)ccc21` [Compound 6-6, 4-((1-(3-methylbut-2-enyl)-5-m-tolyl-1H-indol-3-yl)methyl)morpholine], the IC50 turned out to be 2 ± 0.8 µM at Icmt and 34 ± 3 µM in data set [1] (setting [6]).

Turning to `CC(C)=CCn1cc(CC(N)=O)c2cc(F)ccc21` [Compound 6-8, 2-(5-Fluoro-1-(3-methylbut-2-enyl)-1H-indol-3-yl)acetamide], the IC50 at Icmt was 69 µM; in data set [1] (setting [5]) it was > 100 µM.

With `CCCCCCCCn1cc(CN(CC)CC)c2cc(F)ccc21` [Compound 6-9, N-ethyl-N-((5-fluoro-1-octyl-1H-indol-3-yl)methyl)ethanamine], the IC50 in data set [1] (setting [3]) was 2.7 µM; in data set [1] (MDA-MB-231 cells, MTS colorimetric assay, 72 h, one determination) it was 2 µM.

Take `CCCCCCCCn1cc(CC(N)=O)c2cc(-c3cccc(C)c3)ccc21` [cysmethynil, 2-(1-octyl-5-m-tolyl-1H-indol-3-yl) acetamide, reference compound]: at Icmt, the IC50 was found to be 1.5 µM. In data set [2] (setting [7]), the fraction unbound at 30 min, 1 µM was 0.0962; the fraction unbound at 30 min, 4 µM is 0.104; the fraction unbound at 30 min, 10 µM was 0.0945; the fraction unbound at 30 min, 25 µM is 0.122. In data set [2] (setting [8]), the fraction unbound at 30 min, 1 µM was 0.107; the fraction unbound at 30 min, 4 µM is 0.0557; the fraction unbound at 30 min, 10 µM is 0.136; the fraction unbound at 30 min, 25 µM was 0.219. Besides, in data set [2] (setting [9]), the fraction unbound at 30 min, 1 µM was 0.0611; the fraction unbound at 30 min, 4 µM is 0.124; the fraction unbound at 30 min, 10 µM is 0.0943; the fraction unbound at 30 min, 25 µM is 0.0636. Moreover, in data set [2] (setting [10]), the fraction unbound at 30 min, 1 µM is 0.12; the fraction unbound at 30 min, 4 µM is 0.131; the fraction unbound at 30 min, 10 µM is 0.0538; the fraction unbound at 30 min, 25 µM is 0.0844. Further, in data set [2] (all conc (1, 4, 10, 25 uM), read-out: % Bound Average, all conc (converted)), the fraction unbound at 30 min is 0.104.
